In patent publication US20150166625A1 (Sanofi, priority 2013, published 2015):

Test system: female diabetic dbdb-mice
Assay: Glucose lowering in female diabetic dbdb-mice
Type: in vivo, mouse
Conditions: 100 μg/kg s.c.
Description: Female diabetic dbdb-mice (BKS.Cg-+Leprdb/+Leprdb/OlaHsd) 10 weeks of age at study start were used. Mice were habituated to feeding and housing conditions for at least 2 weeks. 7 days prior to study start, HbA1c were determined to allocate mice to groups, aiming to spread low, medium and high HbA1c-values and in consequence the group-means (n=8), as equally as possible. On the day of study, food was removed, directly before sampling for baseline glucose assessment (t=0 min). Immediately afterwards, compounds or vehicle (phosphor buffered saline, PBS) were administered subcutaneously, 100 μg/kg, 10 ml/kg. Afterwards, blood samples were drawn by tail tip incision at 15, 30, 60, 90, 120, 150, 180, 240, 360, 480 min and 24 h. Food was re-offered after the 480 min-sampling.
Data were analysed by 2-W-ANOVA on repeated measurements, followed by Dunnett's test as post-hoc assessment, level of significance p<0.05.

H-Aib-HGTFTSDLSKQLDEQLAKDFIEWLIAGGPSSGAPPPS-NH2 [SEQ ID NO: 9]
maximal effect, glucose reduction (non-fasted female db/db mice, baseline on average 28 mmol/l): ~12 mmol/L

HSHGTFTSDLSKQLDEQLAKDFIEWLIAGGPSSGAPPPS-NH2 [SEQ ID NO: 10]
reduction of glucose compared to vehicle control (female db/db mice, from t=60 min until 240 min, p<0.05): statistical significant reduction of glucose
